# In ChEMBL document CHEMBL4346687, “Design, synthesis and biological evaluation of novel uracil derivatives bearing 1, 2, 3-triazole moiety as thymidylate synthase (TS) inhibitors and as potential antitumor drugs” (Eur J Med Chem, 2019):
# Active and inactive are the calls of the source. The rule behind the calls is not given here.
# Columns and labels:
# A549 [1] = experiment: Induction of apoptosis in human A549 cells assessed as down regulation of Bcl-2 protein expression at 0.5 to 1.5 uM after 24 hrs by Western blot analysis; assay type: functional, cell-based
# A549 [2] = experiment: Antiproliferative activity against human A549 cells assessed as reduction in cell viability at 5 uM after 24 hrs by MTT assay; assay type: functional; conditions: A549, 24 h
# A549 [3] = experiment: Induction of apoptosis in human A549 cells assessed as activation of caspase-3 protein level at 0.5 to 1.5 uM after 24 hrs by Western blot analysis; assay type: functional, cell-based
# A549 [4] = experiment: Antiproliferative activity against human A549 cells assessed as reduction in cell viability at 1.25 uM after 24 hrs by MTT assay; assay type: functional; conditions: A549, 24 h
# A549 [5] = experiment: cells; conditions: Homo sapiens, A549, 24 h
# Description: Antiproliferative activity against human A549 cells assessed as reduction in cell viability after 24 hrs by MTT assay
# A549 [6] = experiment: Cell cycle arrest in human A549 cells assessed as decrease in S phase at 0.5 to 1.5 uM after 24 hrs by propidium iodide staining based flow cytometric analysis; assay type: functional
# [7] = Cytotoxicity against human L02 cells assessed as reduction in cell viability after 24 hrs by MTT assay; assay type: cell-based; conditions: L02 cells
# A549 [8] = experiment: Induction of apoptosis in human A549 cells assessed as necrotic cells at 0.5 uM after 24 hrs by Annexin V-FITC/propidium iodide staining based flow cytometric analysis (reference value: 0.1%); assay type: functional
# A549 [9] = experiment: Induction of apoptosis in human A549 cells assessed as early apoptotic cells at 1.5 uM after 24 hrs by Annexin V-FITC/propidium iodide staining based flow cytometric analysis (reference value: 0.6%); assay type: functional
# A549 [10] = experiment: Induction of apoptosis in human A549 cells assessed as early apoptotic cells at 1 uM after 24 hrs by Annexin V-FITC/propidium iodide staining based flow cytometric analysis (reference value: 0.6%); assay type: functional
# A549 [11] = experiment: Induction of late apoptosis in human A549 cells after 24 hrs by Annexin V-FITC/propidium iodide staining based flow cytometric analysis; assay type: functional, cell-based
# A549 [12] = experiment: Induction of apoptosis in human A549 cells assessed as necrotic cells at 1 uM after 24 hrs by Annexin V-FITC/propidium iodide staining based flow cytometric analysis (reference value: 0.1%); assay type: functional
# SGC-7901 = experiment: cells; conditions: Homo sapiens, SGC-7901, 24 h
# Description: Antiproliferative activity against human SGC7901 cells assessed as reduction in cell viability after 24 hrs by MTT assay
# A549 [13] = experiment: Induction of apoptosis in human A549 cells assessed as late apoptotic cells at 0.5 uM after 24 hrs by Annexin V-FITC/propidium iodide staining based flow cytometric analysis (reference value: 1.1%); assay type: functional
# A549 [14] = experiment: Induction of apoptosis in human A549 cells assessed as decrease in ratio of Bcl-2/Bax at 0.5 to 1.5 uM after 24 hrs by Western blot analysis; assay type: functional, cell-based
# A549 [15] = experiment: Induction of apoptosis in human A549 cells assessed as viable cells at 1 uM after 24 hrs by Annexin V-FITC/propidium iodide staining based flow cytometric analysis (reference value: 98.2%); assay type: functional; conditions: A549, 24 h, read-out: Activity
# A549 [16] = experiment: Induction of early apoptosis in human A549 cells after 24 hrs by Annexin V-FITC/propidium iodide staining based flow cytometric analysis; assay type: functional, cell-based
# A549 [17] = experiment: Induction of apoptosis in human A549 cells assessed as necrotic cells at 1.5 uM after 24 hrs by Annexin V-FITC/propidium iodide staining based flow cytometric analysis (reference value: 0.1%); assay type: functional
# [18] = Cytotoxicity against human HPAEpic cells assessed as reduction in cell viability after 24 hrs by MTT assay; assay type: cell-based; conditions: HPAEpic cells
# A549 [19] = experiment: Antiproliferative activity against human A549 cells assessed as reduction in cell viability at 10 uM after 24 hrs by MTT assay; assay type: functional; conditions: A549, 24 h
# A549 [20] = experiment: Antiproliferative activity against human A549 cells assessed as reduction in cell viability at 20 uM after 24 hrs by MTT assay; assay type: functional; conditions: A549, 24 h
# A549 [21] = experiment: Antiproliferative activity against human A549 cells assessed as reduction in cell viability at 0.625 uM after 24 hrs by MTT assay; assay type: functional; conditions: A549, 24 h
# A549 [22] = experiment: Cell cycle arrest in human A549 cells assessed as decrease in G2/M phase at 0.5 to 1.5 uM after 24 hrs by propidium iodide staining based flow cytometric analysis; assay type: functional
# OVCAR-3 = experiment: cells; conditions: Homo sapiens, OVCAR-3, 24 h
# Description: Antiproliferative activity against human OVCAR3 cells assessed as reduction in cell viability after 24 hrs by MTT assay
# A549 [23] = experiment: Induction of apoptosis in human A549 cells assessed as increase in cleaved caspase-3 protein level at 0.5 to 1.5 uM after 24 hrs by Western blot analysis; assay type: functional, cell-based
# A549 [24] = experiment: Cell cycle arrest in human A549 cells assessed as increase in G0/G1 phase at 0.5 to 1.5 uM after 24 hrs by propidium iodide staining based flow cytometric analysis; assay type: functional
# HepG2 = experiment: cells; conditions: Homo sapiens, HepG2, 24 h
# Description: Antiproliferative activity against human HepG2 cells assessed as reduction in cell viability after 24 hrs by MTT assay
# A549 [25] = experiment: Induction of apoptosis in human A549 cells assessed as early apoptotic cells at 0.5 uM after 24 hrs by Annexin V-FITC/propidium iodide staining based flow cytometric analysis (reference value: 0.6%); assay type: functional
# [26] = Cytotoxicity against human IOSE-80 cells assessed as reduction in cell viability after 24 hrs by MTT assay; assay type: cell-based; conditions: IOSE-80 cells
# A549 [27] = experiment: Induction of apoptosis in human A549 cells assessed as viable cells at 0.5 uM after 24 hrs by Annexin V-FITC/propidium iodide staining based flow cytometric analysis (reference value: 98.2%); assay type: functional; conditions: A549, 24 h, read-out: Activity
# A549 [28] = experiment: Cell cycle arrest in human A549 cells assessed as decrease in Cyclin E protein expression at 0.5 to 1.5 uM after 24 hrs by Western blot analysis; assay type: functional, cell-based
# A549 [29] = experiment: Induction of apoptosis in human A549 cells assessed as viable cells at 1.5 uM after 24 hrs by Annexin V-FITC/propidium iodide staining based flow cytometric analysis (reference value: 98.2%); assay type: functional; conditions: A549, 24 h, read-out: Activity
# A549 [30] = experiment: Cell cycle arrest in human A549 cells assessed as decrease in Cyclin D protein expression at 0.5 to 1.5 uM after 24 hrs by Western blot analysis; assay type: functional, cell-based
# A549 [31] = experiment: Induction of apoptosis in human A549 cells assessed as late apoptotic cells at 1.5 uM after 24 hrs by Annexin V-FITC/propidium iodide staining based flow cytometric analysis (reference value: 1.1%); assay type: functional
# A549 [32] = experiment: Induction of apoptosis in human A549 cells assessed as up regulation of Bax protein expression at 0.5 to 1.5 uM after 24 hrs by Western blot analysis; assay type: functional, cell-based
# A549 [33] = experiment: Induction of apoptosis in human A549 cells assessed as late apoptotic cells at 1 uM after 24 hrs by Annexin V-FITC/propidium iodide staining based flow cytometric analysis (reference value: 1.1%); assay type: functional
# [34] = Cytotoxicity against human GES-1 cells assessed as reduction in cell viability after 24 hrs by MTT assay; assay type: cell-based, GES1; conditions: GES-1 cells
# [35] = Selectivity index, ratio of CC50 for cytotoxicity against human L02 cells to IC50 for antiproliferative activity against human HepG2 cells; conditions: L02 cells (CC50) versus HepG2 cells (IC50)
# [36] = Selectivity index, ratio of CC50 for cytotoxicity against human HPAEpic cells to IC50 for antiproliferative activity against human A549 cells; conditions: HPAEpic cells (CC50) versus A549 cells (IC50)
# [37] = Selectivity index, ratio of CC50 for cytotoxicity against human GES-1 cells to IC50 for antiproliferative activity against human SGC7901 cells; conditions: GES-1 cells (CC50) versus SGC7901 cells (IC50)
# [38] = Selectivity index, ratio of CC50 for cytotoxicity against human IOSE-80 cells to IC50 for antiproliferative activity against human OVCAR3 cells; conditions: IOSE-80 cells (CC50) versus OVCAR3 cells (IC50)
# Thymidylate synthase = Thymidylate synthase (Homo sapiens, UniProt P04818); experiment: Inhibition of human thymidylate synthase using dUMP as substrate by spectrophotometric method
# Chain of Thymidylate synthase (P04818 whole entry): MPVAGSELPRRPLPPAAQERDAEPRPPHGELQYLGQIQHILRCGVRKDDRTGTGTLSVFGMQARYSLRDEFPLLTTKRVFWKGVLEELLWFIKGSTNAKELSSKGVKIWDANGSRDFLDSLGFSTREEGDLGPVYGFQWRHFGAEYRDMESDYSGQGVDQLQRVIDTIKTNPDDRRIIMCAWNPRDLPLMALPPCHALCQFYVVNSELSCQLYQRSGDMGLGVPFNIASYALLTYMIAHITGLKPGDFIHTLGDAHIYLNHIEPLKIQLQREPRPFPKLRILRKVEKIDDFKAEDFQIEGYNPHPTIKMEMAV
smiles,measurement,setting,value
O=c1[nH]cc(S(=O)(=O)Nc2ccccc2-c2cn(-c3ccc(Cl)cc3)nn2)c(=O)[nH]1,Activity,A549 [1],Active
same,inhibition at 5 µM,A549 [2],75.5%
same,Activity,A549 [3],Active
same,inhibition at 1.25 µM,A549 [4],55.5%
same,IC50,A549 [5],1.18 µM
same,Activity,A549 [6],Dose-dependent effect
same,CC50 at 24 h,[7],16.8 µM
same,Activity,A549 [8],0.1%
same,Activity,A549 [9],4.1%
same,Activity,A549 [10],3.5%
same,Activity,A549 [11],Dose-dependent effect
same,Activity,A549 [12],1.2%
same,IC50,SGC-7901,2.7 µM
same,Activity,A549 [13],2.1%
same,Activity,A549 [14],Active
same,viability at 1 µM,A549 [15],89.7%
same,Activity,A549 [16],Dose-dependent effect
same,Activity,A549 [17],4.5%
same,CC50 at 24 h,[18],20.4 µM
same,inhibition at 10 µM,A549 [19],77.3%
same,inhibition at 20 µM,A549 [20],80.2%
same,inhibition at 0.625 µM,A549 [21],32%
same,Activity,A549 [22],Dose-dependent effect
same,IC50,OVCAR-3,1.75 µM
same,Activity,A549 [23],Active
same,Activity,A549 [24],Dose-dependent effect
same,IC50,HepG2,1.84 µM
same,Activity,A549 [25],1.3%
same,CC50 at 24 h,[26],16.5 µM
same,viability at 0.5 µM,A549 [27],96.5%
same,Activity,A549 [28],Dose-dependent effect
same,viability at 1.5 µM,A549 [29],84.2%
same,Activity,A549 [30],Dose-dependent effect
same,Activity,A549 [31],7.1%
same,Activity,A549 [32],Active
same,Activity,A549 [33],5.6%
same,CC50 at 24 h,[34],26.7 µM
Nc1nc2[nH]cc(CCc3ccc(C(=O)N[C@@H](CCC(=O)O)C(=O)O)cc3)c2c(=O)[nH]1 [PEMETREXED DISODIUM],inhibition at 5 µM,A549 [2],47.1%
same,inhibition at 1.25 µM,A549 [4],39.9%
same,CC50 at 24 h,[7],30.7 µM
same,selectivity ratio,[35],8.23
same,IC50,SGC-7901,6.96 µM
same,selectivity ratio,[36],7.71
same,CC50 at 24 h,[18],25.4 µM
same,selectivity ratio,[37],3.25
same,inhibition at 10 µM,A549 [19],58.7%
same,inhibition at 20 µM,A549 [20],74.7%
same,inhibition at 0.625 µM,A549 [21],27.2%
same,selectivity ratio,[38],3.56
same,IC50,Thymidylate synthase,2.04 µM
same,IC50,OVCAR-3,4.35 µM
same,IC50,HepG2,3.73 µM
same,CC50 at 24 h,[26],15.5 µM
same,CC50 at 24 h,[34],22.6 µM
